Laboratory results from patent US12338228B2, “NLRP3 modulators” (Innate Tumor Immunity, Inc., priority 2019, dated 2025).

These compounds were tested against T1, NLRP3 (Homo sapiens, UniProt Q96P20) (assay: Measurement of IL-1β production in PMA-differentiated THP-1 cells (NLRP3 hIL1β)).
T1 construct: host or cells: PMA-differentiated THP-1 cells
Assay type: cell-based
Protocol: Serial dilutions of compounds in DMSO were added to low volume 384 well plates at 100 nl/well using an ECHO 550 acoustic dispenser (Labcyte) to achieve final starting concentration of 10 μM in assay.
THP-1 cells in RPMI (Gibco, 11875) media with 10% FBS at a density of 1×10^6 cell/ml in a T175 flask were treated with a final concentration of phorbol 12-myristate 13-acetate (PMA) (Sigma,P1585) of 50 ng/ml overnight at 37° C. at 5% CO2 for differentiation. Cells were harvested the next day after rinsing well with dPBS using 0.5% trypsin. A cell solution was prepared of 1×10^6 cells/ml for 50,000 cells in 50 μl/well in RPMI media with 2% FBS. Cells were plated using a multichannel pipette onto the compound dilutions in Greiner, 384 well, black clear bottom tissue culture treated plates (781090). The plates were incubated in 37° C. incubator at 5% CO2 for 2 hours.
After the 2 hour incubation, the cell plates were spun in the centrifuge for 5 minutes at 1200 rpm. Using the Felix (CyBio), 8 μl of the supernatant was transferred to 384 well, low volume, white proxy plates. (Perkin Elmer, 6008230). A human IL1beta hTRF kit was used to analyze the supernatant (CISBIO, 62HIL1BPEG). The kit instructions were followed for preparing the IL1Beta standard curve and then the antibodies from the kit were diluted 1:40 rather than 1:20 as kit instructed. Once combined, the antibodies were added across the plates, 5 μl/well. The plates were sealed and incubated at 4° C. overnight. The plates were then read on the Perkin Elmer EnVision at 665/615 nm using the hTRF laser.

T1 sequence (Q96P20 whole entry): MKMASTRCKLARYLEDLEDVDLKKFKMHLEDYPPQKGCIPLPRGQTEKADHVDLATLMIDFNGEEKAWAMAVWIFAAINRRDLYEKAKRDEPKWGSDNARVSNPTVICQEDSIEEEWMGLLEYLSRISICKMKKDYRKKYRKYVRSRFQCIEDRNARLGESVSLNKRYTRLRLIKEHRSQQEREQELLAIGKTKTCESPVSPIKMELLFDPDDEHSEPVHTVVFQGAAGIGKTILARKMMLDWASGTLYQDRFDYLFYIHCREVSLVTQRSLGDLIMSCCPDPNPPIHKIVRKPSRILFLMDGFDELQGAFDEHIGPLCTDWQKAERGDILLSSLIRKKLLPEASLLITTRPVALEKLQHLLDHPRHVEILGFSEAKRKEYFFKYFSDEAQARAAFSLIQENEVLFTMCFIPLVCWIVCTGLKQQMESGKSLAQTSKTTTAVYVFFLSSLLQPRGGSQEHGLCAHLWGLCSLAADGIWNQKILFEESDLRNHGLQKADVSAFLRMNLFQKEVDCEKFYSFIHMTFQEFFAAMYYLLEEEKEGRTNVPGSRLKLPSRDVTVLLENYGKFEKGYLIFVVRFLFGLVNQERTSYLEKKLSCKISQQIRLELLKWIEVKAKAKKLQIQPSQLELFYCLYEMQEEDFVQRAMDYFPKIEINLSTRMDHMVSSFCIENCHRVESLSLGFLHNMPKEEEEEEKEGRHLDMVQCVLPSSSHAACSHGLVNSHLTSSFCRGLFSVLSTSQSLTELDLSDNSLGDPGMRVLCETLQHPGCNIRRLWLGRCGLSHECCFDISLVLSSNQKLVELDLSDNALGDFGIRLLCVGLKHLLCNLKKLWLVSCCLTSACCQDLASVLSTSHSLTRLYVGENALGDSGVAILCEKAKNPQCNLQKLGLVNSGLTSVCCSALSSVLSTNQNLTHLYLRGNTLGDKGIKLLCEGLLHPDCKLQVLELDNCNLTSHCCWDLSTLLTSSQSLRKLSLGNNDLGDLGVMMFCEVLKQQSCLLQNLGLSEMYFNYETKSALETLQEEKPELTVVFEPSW

In order of rising EC50:
1. Nc1nc2cc(-c3cc[nH]n3)ccc2c(NCCCO)c1F [Example 1, 3-((2-Amino-3-fluoro-7-(1H-pyrazol-3-yl)quinolin-4-yl)amino)propan-1-ol]  160 nM
2. Nc1cc(N[C@H]2CC[C@H](O)C2)c2c(F)cc(-c3cc[nH]n3)cc2n1 [Example 8, (1S,3S)-3-((2-Amino-5-fluoro-7-(1H-pyrazol-3-yl)quinolin-4-yl)amino)cyclopentan-1-ol]  230 nM
3. Nc1cc(NCCCO)c2c(F)cc(-c3cc[nH]n3)cc2n1 [Example 7, 3-((2-Amino-5-fluoro-7-(1H-pyrazol-3-yl)quinolin-4-yl)amino)propan-1-ol]  230 nM
4. Nc1nc2cc(-c3ccn[nH]3)ccc2c(NCCO)c1C1CCCC1 [Example 14, 2-((2-Amino-3-cyclopentyl-7-(1H-pyrazol-5-yl)quinolin-4-yl)amino)ethan-1-ol]  260 nM
5. 3-((2-Amino-3-cyclopentyl-7-(1H-pyrazol-5-yl)quinolin-4-yl)amino)propan-1-ol [Example 16]  260 nM
6. Nc1cc(NCc2cc[nH]n2)c2c(F)cc(-c3cc[nH]n3)cc2n1 [Example 9, N4-((1H-Pyrazol-3-yl)methyl)-5-fluoro-7-(1H-pyrazol-3-yl)quinoline-2,4-diamine]  290 nM
7. Nc1cc(NCCCO)c2ccc(-c3cc[nH]n3)c(F)c2n1 [Example 4, 3-((2-Amino-8-fluoro-7-(1H-pyrazol-3-yl)quinolin-4-yl)amino)propan-1-ol]  330 nM
8. Nc1nc2cc(-c3cc[nH]n3)ccc2c(NCCCO)c1Cl [Example 3, 3-((2-Amino-3-chloro-7-(1H-pyrazol-3-yl)quinolin-4-yl)amino)propan-1-ol]  350 nM
9. Nc1nc2cc(-c3ccn[nH]3)ccc2c(NCc2ccccn2)c1C1CCCC1 [Example 15, 3-Cyclopentyl-7-(1H-pyrazol-5-yl)-N4-(pyridin-2-ylmethyl)quinoline-2,4-diamine]  440 nM
10. Cc1c(N)nc2cc(-c3ccn[nH]3)ccc2c1NCc1ccn[nH]1 [Example 13, N4-((1H-Pyrazol-5-yl)methyl)-3-methyl-7-(1H-pyrazol-5-yl)quinoline-2,4-diamine]  450 nM
11. Nc1nc2cc(-c3cc[nH]n3)ccc2c(N[C@H]2CC[C@H](O)C2)c1F [Example 2, (1 S,3 S)-3-((2-Amino-3-fluoro-7-(1H-pyrazol-3-yl)quinolin-4-yl)amino)cyclopentan-1-ol]  600 nM
12. Nc1cc(NCc2ccn[nH]2)c2ccc(-c3ccn[nH]3)c(F)c2n1 [Example 11, N4-((1H-Pyrazol-5-yl)methyl)-8-fluoro-7-(1H-pyrazol-5-yl)quinoline-2,4-diamine]  710 nM
13. Nc1cc(N[C@H]2CCOC2)c2c(F)cc(-c3cc[nH]n3)cc2n1 [Example 10, (S)-5-Fluoro-7-(1H-pyrazol-3-yl)-N4-(tetrahydrofuran-3-yl)quinoline-2,4-diamine]  850 nM
14. Cc1cc(-c2cc[nH]n2)cc2nc(N)cc(NCc3cc[nH]n3)c12 [Example 6, N4-((1H-Pyrazol-3-yl)methyl)-5-methyl-7-(1H-pyrazol-3-yl)quinoline-2,4-diamine]  1400 nM
15. Cc1c(N)nc2cc(-c3ccn[nH]3)ccc2c1NCCCO [Example 12, 3-((2-Amino-3-methyl-7-(1H-pyrazol-5-yl)quinolin-4-yl)amino)propan-1-ol]  2900 nM
16. Cc1cc(-c2cc[nH]n2)cc2nc(N)cc(N[C@H]3CC[C@H](O)C3)c12 [Example 5, (1S,3S)-3-((2-Amino-5-methyl-7-(1H-pyrazol-3-yl)quinolin-4-yl)amino)cyclopentan-1-ol]  4000 nM
